Columns and labels:
Type in all cases: in vivo
blood brain barrier = test: Blood brain barrier permeability with Fluoro-gold in PBA-treated HFD-fed mice; details: HFD-fed wt male mice; PBA 12 days; Fluoro-gold IP 15 mg/kg
Method: Leptin resistance in obesity arises due to both impairment of leptin action in the hypothalamus and defects in the transport of leptin in the blood brain barrier^14,42. […] Three days after the injections, mice were anesthetized and perfused with saline and then 4% paraformaldehyde. After the fixation, brains were removed. Following the necessary further fixation and sectioning, Fluoro-gold staining was performed on the whole brain slices. […] Reactivity against the Fluoro-gold is not different between the vehicle and PBA-treated groups. Fluoro-gold-labeled neurons should be present in the areas like ventro-medial hypothalamus (VMH), dorso-medial hypothalamus (DMH) and lateral hypothalamic area (LHA), if the BBB permeability is perturbed. […] (data not shown)

HFD-fed obese mice = test: PBA alone in HFD-fed or ND-fed mice: bodyweight, hypothalamic PERK and leptin-stimulated Stat3 phosphorylation
Method: C57BL/6 mice that were kept on high fat diet feeding for 25 weeks were either treated with vehicle or PBA (1 g/kg/day) for 10 days. Following the pretreatment period mice were given daily leptin (5 mg/kg/day, IP) treatment. (a) Bodyweight (g), (b) % decrease in the bodyweight, and (c) 24 hour food intake (g) during the 30 days of leptin administration. Metabolic cage analysis was performed after 25 days of treatment (d) O2 consumption (ml/kg/hr), (e) CO2 production (ml/kg/hr), (f) X-axis ambulatory activity, (g) Respiratory exchange ratio (VCO2/VO2), (h) Heat generation (kcal/hr). Dexa scan analysis of (i) Lean body mass (g), (j) Fat % and (k) Total fat amount (g). C57BL6 mice were fed a HFD for a period of 25 weeks and then either treated with PBA (1 g/kg) or VEH for 16 days. (1) PERK phosphorylation in the hypothalamus extracts. (m) Leptin-stimulated Stat3^Tyr705 phosphorylation in the VEH and PBA-treated HFD-fed mice. (n) C57BL6 mice were fed a ND for a period of 25 weeks and then either treated with PBA (1 g/kg) or VEH for 16 days. Following the treatment period mice were starved for six hours and subsequently injected with leptin (IP, 1 mg/kg). Stat3^Tyr705 phoshorylation and total Stat levels were examined in the hypothalamus extracts. (n=6 in each group). Error bars are ±S.E.M., P values are determined by Student's t-test. (*p<0.05, **p<0.01, ***p<0.001)
Mice were fed a HFD (60%) for 25 weeks and following an acclimation PBA (1 gr/kg/day) and vehicle treatment was initiated. (a) Bodyweight, (b) % decrease in bodyweight and (c) daily food intake of VEH and PBA-treated HFD-fed obese mice were analyzed during the 16 days of treatment period. (n=5 in each group) Error bars are ±S.E.M., P values are determined by Student's t-test (*p<0.05, **p<0.01, ***p<0.001).
To investigate whether PBA treatment reduces the ER stress, we analyzed the PERK phosphorylation in the HFD-fed mice, which were either treated with VEH or PBA for 16 days. […] To investigate whether leptin-stimulated activation of LepRB signaling is increased in the hypothalamus of the PBA-treated HFD-fed obese mice, we intraperitoneally injected leptin (0.75 mg/kg) following a six-hour fast and analyzed the Stat3^Tyr705 phosphorylation in the hypothalamus extracts of VEH and PBA-treated mice. […] We also analyzed the leptin-stimulated Stat3^Tyr705 phosphorylation in the hypothalamus of the wt mice, which were either treated with vehicle or PBA for 16 days.

[1] = tested on: hypothalamus of lean mice; test: Tunicamycin infusion to the third ventricle of lean mice; details: leptin 1 mg/kg IP 5½ hours after third ventricle tunicamycin or vehicle infusion, 30 minutes after leptin
Description: Having shown that ER stress is increased in the hypothalamus of HFD-fed mice and causes leptin resistance in the cellular systems, we sought to investigate whether leptin action could also be blocked by directly inducing ER stress in brains of lean mice.
Next, we investigated the expression patterns of leptin resistance markers such as neuropeptide Y (NPY) and agouti related peptide (AgRP) in the vehicle- and tunicamycin-infused mice. […] In addition, to exclude the possibility that tunicamycin infusion leads to a decay in mRNA degradation of NPY and AgRP due to a possible toxic effect, we analyzed mRNA levels of IR and insulin receptor substrate 1 (IRS1).
To assess whether increased ER stress and activation of UPR signaling would create leptin resistance and block the leptin-stimulated Stat3 activation in the hypothalamus, leptin (1 mg/kg/day) was intraperitoneally administered 5½ hours after tunicamycin infusion. The experiment was ended by dissection of the hypothalami 30 minutes after leptin administration. […] In contrast, administration of tunicamycin to the third ventricle and creation of ER stress, in complete accordance with our data obtained from 293 cells, blocked activation of Stat3 in the hypothalamus (data not shown).

[2] = tested on: Stat3 Tyr705 phosphorylation; test: Leptin-stimulated Stat3 Tyr705 phosphorylation in hypothalamus of wt lean and ob/ob mice; details: leptin 0.1 mg/kg IP, six hour fasting, 30 minutes
Method: Nine-week old lean wt and ob/ob mice were orally treated with either PBA (1 g/kg/day) or vehicle (VEH) for 26 days and PERK (Thr980) phosphorylation is examined in the hypothalamus extracts with direct immunoblotting. (B) Ten week-old wt lean and ob/ob mice were intraperitoneally injected with leptin (0.1 mg/kg) after six-hour starvation. Hypothalami were removed 30 minutes after the injections, and pStat3^Tyr705 and total Stat3 levels were examined. (C) Nine-week old lean wt and ob/ob mice were orally treated with PBA (1 g/kg/day) for 10 days. Following the pretreatment period, leptin-deficient ob/ob mice were either administered with VEH or with different doses of leptin through the intraperitoneal route. The effect of VEH or PBA administration on (C) bodyweight (g), (D) percent decrease in bodyweight and (E) 24-hour food intake (n=3 for VEH and n=4 PBA-treated group). Effect of 5 mg/kg/day leptin administration on (F) bodyweight, (G) percent decrease in bodyweight and (H) 24-hour food intake in VEH- or PBA-treated ob/ob mice (n=3 for VEH and n=4 PBA-treated group). Analysis of the same parameters (body weight, percent decrease in bodyweight and 24-hour food intake) in (I, J, K) 1 mg/kg/day and (L, M, N) 0.1 mg/kg/day leptin-treated mice (n=3 for VEH and n=4 PBA-treated group). Data presented as means±SEM (*p<0.05, **p<0.01, ***p<0.001). […]

[3] = HFD-fed mice, PBA 1 g/kg alone, 16 days, vs VEH

Row | BBB permeability (Fluoro-gold-labeled neurons in VMH, DMH, LHA) (blood brain barrier) | Compound | body weight (HFD-fed obese mice; [3]) | food intake (HFD-fed obese mice; [3]) | PERK phosphorylation in the hypothalamus (HFD-fed obese mice; HFD-fed obese mice, PBA 1 g/kg, 16 days, vs VEH) | leptin-stimulated Stat3 Tyr705 phosphorylation in hypothalamus (HFD-fed obese mice; HFD-fed obese mice, PBA 16 days, leptin 0.75 mg/kg IP after six-hour fast) | leptin-stimulated Stat3 Tyr705 phosphorylation in hypothalamus (HFD-fed obese mice; ND-fed lean wt mice, PBA 16 days vs VEH, leptin IP 1 mg/kg) | Stat3 phosphorylation (activation) in the hypothalamus [1] | Stat3 Tyr705 phosphorylation in the hypothalamus ([2]; ob/ob mice) | Stat3 Tyr705 phosphorylation in the hypothalamus ([2]; wt lean mice)
1 | not increased | O=C(O)CCCc1ccccc1 [PBA, 4-phenyl butyric acid] | did not reduce | did not reduce | marked decrease | marked up-regulation | did not cause a higher activation | – | – | –
2 | – | leptin: adipocyte-derived hormone that suppresses appetite | – | – | – | – | – | marked increase | completely absent | responded well
